Measured values as given in US12435377B2, “Cancers with loss of chromosome 16Q and/or low expression of metallothionein proteins” (THE BROAD INSTITUTE, INC., priority 2018, dated 2025).
Like-named read-outs stand apart in the source and are kept apart here.

Assays:
[1] = system: biomarker-presenting cell lines; experiment: Cytotoxicity of disulfiram metabolites to biomarker-presenting cell lines; format: cell-based; conditions: compared with the cytotoxicity of disulfiram (DSF)
Source text: (§1) Biological replicates were averaged and normalized to vehicle control. Dose curves were generated using Graphpad Prism.

[2] = system: SH10TC cells; experiment: CellTiter-Glo cellular viability assay, dose-response curves (FIG. 5B)
Procedure: (§2) Cell viability was assayed using a modified manufacturer's protocol for CellTiter-Glo® (Promega #G7573). Cells were seeded at a density of 2000 cells per well in a 96 well black, clear bottom plate (Corning #89091-012) in 100 uL total media per well. The following day different concentrations of compounds at various doses were printed in triplicate in a random well format using the Tecan D300e Digital Dispenser. After 120H, 60 μL of a 1:3 solution of CellTiterGlo reagent in 1×PBS (Corning #01018002) was added per well and allowed to incubate at RT for 10 mins. Luminescence was measured with an integration time of 0.1 s using Envision Microplates Reader (PERKIN ELMER #2105-0010). Biological replicates were averaged and normalized to vehicle control. Dose curves were generated using Graphpad Prism.

[3] = system: G401 cells; experiment: as above
Procedure: as §2

[4] = system: PRISM cancer cell lines stratified by chromosome 16q status; experiment: PRISM multiplexed cellular viability assay (drug repurposing library); format: cell-based, human; conditions: for cell killing profile: PRISM screen, compared with other compounds of the drug repurposing library
Procedure: Parental cell lines were obtained from the Cancer Cell Line Encyclopedia (CCLE) project (1). PRISM cell line barcoding, pooling, and screening was performed as previously described with several improvements to the original method (2). First, the lentiviral vector was modified to encode the unique barcode identifier at the end of the puromycin resistance gene. This enables barcodes to be detected using a variant of the mRNA capture and Luminex detection method developed for the L1000 gene expression assay (3). Second, a set of ten inert barcodes were spiked-in to each well of each plate after cell lysis to control for variation in PCR amplification as detailed below.
MFI values were log-transformed (log MFI) and used to perform basic quality control. To detect probable screening artifacts, log MFI values were centered to the median log MFI for each cell line on each plate in order to put the measurements from each cell line on the same scale. For each well on each plate, the median of these centered values was then standardized according to the global median and global MAD across all plate wells in the same position. Data from wells with a standardized score of greater than 5 or less than −5 were excluded from all further processing steps.
Cell viability was calculated as the ratio of nMFI to the median of the nMFI from the DMSO-treated negative controls for each cell line on each plate. Batch effects produced from variable detection and assay conditions were then removed using ComBat (4). The final viability values were calculated as the median of the batch-corrected cell viabilities from biological replicates for each cell line, compound and dose.
Measures of dose response were obtained by fitting 3-parameter logistic curves to viability values for each compound and cell line using the R package ‘dre’. Following the practice of Smirnov and Safikhani (5), viability was truncated at 1.0 and fit as a function of drug concentration according to: […]
[formula] The Area Under the dose response Curve (AUC) was calculated using the normalized integral: […]

[5] = in chloroform, acetone and ether; cited from earlier work
[6] = cited from earlier work
[7] = system: SH10TC cells
Procedure: as §2

[8] = system: G401 cells
Procedure: as §2

[9] = system: SF295 cells; experiment: Viability of SF295 cells with or without CRISPR-Cas9 MTF1 knockout (FIG. 7); format: cell-based; conditions: MTF1 sg1 and MTF1 sg2 versus control guide GFP sg1
Source text: XP003, XP023, psPAX, and pMD2.G vectors were acquired from the Broad Genetic Perturbation Platform (GPP). Oligos for sgRNAs designs were generated using Broad GPP sgRNA guide generator resource (broad institute.org/gpp/db/analysis-tools/sgrna-design) and the respective oligos were synthesized by Integrated DNA Technologies. In order to clone the sgRNAs into either the XPR003 guide only or XPRO23 all-in-one crispr lentiviral expression systems the protocol available on the Broad GPP website (broadinstitute.org/gpp/db/resources/protocols) was followed.
A mixture of 3E6 cells, virus, and media with 4 μg/mL polybrene (Millipore) at a total volume of 2 mL was plated per well of a 12 well plate. Cells were centrifuged at 2000 RPM for 2 hours at 30° C. After removal from incubator, 2 mL of fresh media was added to each well and cells were allowed to incubate at 37° C. overnight. The following day cells were selected for with puromycin for 3-10 days, or until the non-infected control cell were completely non-viable.
as §1

[10] = system: metastatic melanoma; conditions: cited from earlier work
[11] = order paclitaxel, elesclomol, disulfiram/thiram, DDC

Row | Molecule | biomarker-predicted cytotoxic activity [1] | cytotoxic activity (dose-response) [2] | cytotoxic activity (dose-response) [3] | other results
1 | CCN(CC)C(=S)S [DDC, Diethyldithiocarbamic acid] | retain the cytotoxicity | active | active | rank of cytotoxicity IC50 among active agents [2, 11]: highest IC50 value among those compounds that exhibited activity; rank of cytotoxicity IC50 among active agents [3, 11]: highest IC50 value among those compounds that exhibited activity
2 | CN(C)C(=S)SSC(=S)N(C)C [thiram, Thiram] | – | active | active | cell killing profile [4]: shared cell killing profile specific for cancer cell lines having 16q loss; solubility [5]: dissolve completely; toxicity ([6]; by ingestion): moderately toxic; toxicity ([6]; if inhaled): highly toxic
3 | CC(=O)O[C@H]1C(=O)[C@@]2(C)[C@H]([C@H](OC(=O)c3ccccc3)[C@]3(O)C[C@H](OC(=O)[C@H](O)[C@@H](NC(=O)c4ccccc4)c4ccccc4)C(C)=C1C3(C)C)[C@]1(OC(C)=O)CO[C@@H]1C[C@@H]2O [paclitaxel] | – | active | active | rank of cytotoxicity IC50 among active agents [7]: lowest IC50 value; rank of cytotoxicity IC50 among active agents [8]: lowest IC50 value
4 | CCN(CC)C(=S)SSC(=S)N(CC)CC [disulfiram, Disulfiram] | – | active | active | disulfiram cytotoxicity (linear AUC) versus chromosome 16q status ([4]; Mann-Whitney U test, cell lines binned as 16q loss, normal, gain, 480 cell lines): strongly correlated with 16q loss
5 | CN(NC(=O)CC(=O)NN(C)C(=S)c1ccccc1)C(=S)c1ccccc1 [elesclomol, Elesclomol] | – | active | active | cell killing profile [4]: shared cell killing profile specific for cancer cell lines having 16q loss; effect of MTF1 knockout on sensitivity of SF295 cells [9]: sensitized; progression-free survival ([10]; phase III study, combined with paclitaxel, halted in 2013): did not significantly increase progression-free survival; progression-free survival ([10]; small randomized phase II study, given in addition to paclitaxel): significantly increase progression-free survival
6 | copper(II) diethyldithiocarbamate [Cu-DDC] | retain the cytotoxicity | – | – | –
7 | CCN(CC)C(=S)SC [methyl DDC, Methyl diethyldithiocarbamate] | not observed to be cytotoxic | inactive | inactive | –
